Source: patent publication US7332512B2, “Halogenated nitrobutadienes for controlling animal pests” (priority 2001, dated 2008)

Legend:
Format in all cases: in vivo
Aphis gossypii = assay: Critical concentration test/root-systemic action (Example E), soil drench; conditions: 20 ppm in soil; 10 days; root-systemic; savoy cabbage
Experimental: (§1) Critical Concentration Test/Root-Systemic Action
(§2) To produce a suitable preparation of active compound, 1 part by weight of active compound is mixed with the stated amount of solvent, the stated amount of emulsifier is added and the concentrate is diluted with water to the desired concentration.
(§3) The preparation of active compound is poured onto the soil of the infected savoy cabbage plant. In this way, the active compound can be taken up from the soil by the roots of the plants and can be transported into the leaves. Here, the concentration of active compound in the preparation is virtually immaterial, only the amount by weight per volume unit of soil, which is stated in ppm ([…]), matters.
(§4) The root-systemic action of the active compound is derived from the kill rate. It is 100% if all test animals have been killed and 0% if the number of test insects alive is the same as that for the untreated control.

Lucilia cuprina larvae = assay: Blowfly larvae test/development-inhibitory action (Example N); conditions: 48 h
Experimental: Blowfly Larvae Test/Development-Inhibitory Action
(§5) 20 mg of active compound are dissolved in 1 ml of dimethyl sulphoxide, more dilute concentrations are prepared by dilution with dist. H2O.
About 20 Lucilia cuprina larvae are introduced into a test tube which contains about 1 cm^3 of horse meat and 0.5 ml of the preparation of active compound to be tested. After 24 and 48 hours, the efficacy of the preparation of active compound is determined. The test tubes are transferred into a beaker whose bottom is covered with sand. After a further 2 days, the test tubes are removed and the pupae are counted.
The efficacy of the preparation of active compound is assessed by the number of flies that have hatched after 1.5 times the period of development of an untreated control. 100% means that no flies have hatched; 0% means that all flies have hatched normally.

[1] = tested on: green peach aphid (Myzus persicae); assay: Myzus test (Example A), infested broad bean seedlings dipped; conditions: 500 ppm active compound, 6 days
Experimental: To produce a suitable preparation of active compound, 1 part by weight of active compound is mixed with the stated amounts of solvent and emulsifier, and the concentrate is diluted with water to the desired concentration.
Broad bean seedlings (Vicia faba minor) which are infested by the green peach aphid (Myzus persicae) are dipped into a preparation of active compound of the desired concentration and placed into a plastic box.
(§6) After the desired period of time, the kill in % is determined. 100% means that all animals have been killed; 0% means that none of the animals have been killed.

Myzus persicae [2] = assay: Critical concentration test/root-systemic action (Example K), compound mixed with soil, broad beans; conditions: 4 ppm in soil
Experimental: as §1, §2
The preparation of active compound is mixed intimately with the soil. Here, the concentration of the active compound in the preparation is virtually immaterial, only the amount by weight of active compound per volume unit of soil, which is stated in ppm ([…]) matters. The treated soil is filled into pots of a volume of 250 ml, and pregerminated broad beans are planted into these pots. In this way, the active compound can be taken up from the soil by the plant roots and be transported into the leaves.
The root-systemic action of the active compound is derived from the kill rate. It is 100% if all test animals have been killed and 0% if the number of test insects still alive is exactly the same as in the untreated control.

Myzus persicae [3] = assay: Critical concentration test/root-systemic action (Example F), soil drench; conditions: 20 ppm in soil; 10 days; root-systemic; savoy cabbage
Experimental: as §1, §2, §3, §4

[4] = tested on: larvae of the mustard beetle (Phaedon cochleariae); assay: Phaedon larvae test (Example B), dipped cabbage leaves; conditions: 100 ppm active compound; 6 days
Experimental: (§7) To produce a suitable preparation of active compound, 1 part by weight of active compound is mixed with the stated amounts of solvent and emulsifier, and the concentrate is diluted with emulsifier-containing water to the desired concentration.
(§8) Cabbage leaves (Brassica oleracea) are treated by being dipped into the preparation of active compound of the desired concentration and are populated with larvae of the mustard beetle (Phaedon cochleariae) while the leaves are still moist.
(§9) After the desired period of time, the kill in % is determined. 100% means that all beetle larvae have been killed; 0% means that none of the beetle larvae have been killed.

[5] = tested on: eggs, larvae and pupae of the white fly (Bemisia tabaci); assay: Bemisia test (Example I), infected cotton plants dipped; conditions: 500 ppm active compound; 6 days
Experimental: To produce a suitable preparation of active compound, 1 part by weight of active compound is mixed with the stated amounts of solvent and emulsifier, and the concentrate is diluted with water to the desired concentrations.
Cotton plants (Gossypium hirsutum) infected by eggs, larvae and pupae of the white fly (Bemisia tabaci) are dipped into a preparation of active compound of the desired concentration.
as §6

[6] = tested on: green peach aphid (Myzus persicae); assay: Myzus test (Example G), infested cabbage leaves dipped; conditions: 500 ppm active compound, 6 days
Experimental: as §7
Cabbage leaves (Brassica oleracea), which are heavily infested by the green peach aphid (Myzus persicae) are treated by being dipped into the preparation of active compound of the desired concentration.
(§10) After the desired period of time, the kill in % is determined. 100% means that all aphids have been killed; 0% means that none of the aphids have been killed.

[7] = tested on: eggs of the diamondback moth (Plutella xylostella); assay: Plutella test (Example C), synthetic feed; conditions: 150 ppm active compound; 7 days; kill of eggs and/or larvae
Experimental: To produce a suitable preparation of active compound, 1 part by weight of active compound is mixed with the stated amount of solvent and the concentrate is diluted with methanol to the desired concentrations.
The stated amount of the preparation of active compound of the desired concentration is pipetted onto a standardized amount of synthetic feed. After the methanol has evaporated, about 200-300 eggs of the diamondback moth (Plutella xylostella) are placed onto the feed.
After the desired period of time, the kill of the eggs and/or larvae in % is determined. 100% means that all animals have been killed; 0% means that none of the animals have been killed.

[8] = tested on: cotton aphid (Aphis gossypii); assay: Aphis gossypii test (Example D), infested cotton leaves dipped; conditions: 500 ppm active compound; 6 days
Experimental: as §7
Cotton leaves (Gossypium hirsutum) which are heavily infested by the cotton aphid (Aphis gossypii) are treated by being dipped into the preparation of active compound of the desired concentration.
as §10

[9] = tested on: Adults of Ctenocephalides felis; assay: Test with cat fleas/oral uptake (Example L); conditions: orally, 28 h
Experimental: Test with Cat Fleas/Oral Uptake
To produce a suitable formulation, a suitable solution of active compound is prepared from 20 mg of active compound and 1 ml of DMSO. 15 μl of this formulation are added to 3 ml of citrated cattle blood and stirred.
10 unfed adult fleas (Ctenocephalides felis, strain “Georgi”) are placed into a chamber (Ø 3.2 cm) whose top and bottom are closed with gauze. A metal cylinder whose underside is covered with parafilm is placed onto the chamber. The cylinder contains the 3 ml of blood/active compound formulation which can be taken up by the fleas through the paraffin membrane. Whereas the blood is warmed to 37° C., the temperature in the area of the flea chambers is adjusted to 25° C. Controls are mixed with the same volume of DMSO, without addition of a compound. The determinations are carried out in triplicate.
After 28 h, the mortality in % (=dead fleas) is determined.
Compounds which effect at least 25% kill of the fleas within 28 h are judged to be effective.

[10] = tested on: adult Musca domestica, Reichswald strain (OP, SP, carbamate-resistant); assay: Test with flies (Musca domestica) (Example M), treated filter paper; conditions: time of reading not given
Experimental: Test with Flies (Musca domestica)
as §5
2 ml of this active compound preparation are pipetted onto filter paper discs (Ø 9.5 cm) in Petri dishes of corresponding dimensions. After the filter discs have been dried, 25 test animals are transferred into the Petri dishes, which are then covered.
After 1, 3, 5, 24 and 48 hours, the activity of the active compound preparation is determined. 100% means that all flies have been killed; 0% means that none of the flies have been killed.

[11] = tested on: larvae of the mustard beetle (Phaedon cochleariae); assay: Phaedon larvae test (Example H), dipped cabbage leaves; conditions: 500 ppm active compound; 6 days
Experimental: as §7, §8, §9

[12] = tested on: caterpillars of the armyworm (Spodoptera frugiperda); assay: Spodoptera frugiperda test (Example J), dipped cabbage leaves; conditions: 500 ppm active compound; 7 days; % only printed in method b344
Experimental: Spodoptera frugiperda Test
as §7
Cabbage leaves (Brassica oleracea) are treated by being dipped into the preparation of active compound of the desired concentration and are populated with caterpillars of the armyworm (Spodoptera frugiperda) while the leaves are still moist.
After the desired period of time, the kill in % is determined. 100% means that all caterpillars have been killed; 0% means that none of the caterpillars have been killed.

Row | SMILES | Kill rate in % after 10 d (days) (Aphis gossypii) [%] | % action/kill (Lucilia cuprina larvae; 20 ppm) [%] | % action/kill (Lucilia cuprina larvae; 100 ppm) [%] | Kill rate in % after 6 d (days) [1] [%] | % kill after weeks (Myzus persicae [2]; after 2 weeks) [%] | % kill after weeks (Myzus persicae [2]; after 3 weeks) [%] | % kill after weeks (Myzus persicae [2]; after 4 weeks) [%] | Kill rate in % after 10 d (days) (Myzus persicae [3]) [%] | Kill rate in % after 6 d (days) [5] [%] | Kill rate in % after 6 d (days) [6] [%] | % action/kill ([9]; 20 ppm in cattle blood) [%] | % action/kill ([9]; 100 ppm in cattle blood) [%] | Kill rate in % after 6 d (days) [11] [%] | also measured
1 | O=[N+]([O-])/C(C(Cl)=C(Cl)Cl)=C1\NCCN1Cc1ccc(Cl)nc1 [Example I-1, 2-chloro-5-[2-(2,3,3-trichloro-1-nitroallylidene)imidazolidin-1-ylmethyl]pyridine] | 100 | 0 | 100 | 100 | 100 | 100 | 99 | 100 |  |  |  |  |  | % kill after weeks (Myzus persicae [2]; after 5 weeks): 100%
2 | O=[N+]([O-])/C(C(=C(Cl)Cl)N1CCOCC1)=C1\NCCN1Cc1ccc(Cl)nc1 [Example I-2, 2-chloro-5-[2-(2-morpholinyl-3,3-dichloro-1-nitro-allylidene)imidazolidin-1-ylmethyl]pyridine] | 100 | 0 | 100 | 100 | 100 | 100 | 99 | 100 | 100 | 100 | 80 | 80 | 100 | Kill rate in % after 6 d (days) [4]: 100%; Kill rate in % after 7 d (days) [7]: 100%; Kill rate in % after 6 d (days) [8]: 100%; % action/kill ([9]; 0.8 ppm in cattle blood): 0%; % action/kill ([9]; 4 ppm in cattle blood): 0%; % action/kill ([10]; 20 ppm): 0%; % action/kill ([10]; 100 ppm): 50%
3 | Cc1ccc(SC(=C(Cl)Cl)C(=C2NCCN2Cc2ccc(Cl)nc2)[N+](=O)[O-])cc1 [Example I-3, 2-chloro-5-[2-(2-(p-tolylthio)-3,3-dichloro-1-nitroallylidene)imidazolidin-1-ylmethyl]pyridine] |  |  |  |  |  |  |  |  |  |  | 0 | 50 |  | 
4 | O=[N+]([O-])/C(C(=C(Cl)Cl)N1CCCC1)=C1\NCCN1Cc1ccc(Cl)nc1 [Example I-10] |  |  |  |  |  |  |  |  | 100 |  | 40 | 100 |  | 
5 | O=[N+]([O-])/C(C(=C(Cl)Cl)N1CCSCC1)=C1\NCCN1Cc1ccc(Cl)nc1 [Example I-11] |  | 0 | 100 |  |  |  |  |  |  | 100 | 0 | 70 | 100 | 
6 | CN(C(=C(Cl)Cl)/C(=C1/NCCN1Cc1ccc(Cl)nc1)[N+](=O)[O-])C(C)(C)C [Example I-12] |  | 0 | 100 |  |  |  |  |  |  |  | 30 | 70 |  | Rate of activity after 7 d (days) [12]: 100%
